Test results reported in patent publication US6713051B2, “Antiperspirant or deodorant compositions” (Unilever Home & Personal Care USA division of Conopco, Inc., priority 2001, dated 2004).

Legend:
[1] = target: T1, human PPARα (Homo sapiens, UniProt Q07869); assay: PPARα reporter gene assay (firefly luciferase, transiently transfected Cos-7 cells); type: cell-based; conditions: for Result (superior activity class achieved): class reached; for Pass at (lowest tested administration level at which the test material passed): pass = activation greater than oleic acid at 100 μM, commonly >1.57 times vehicle control, 24 h treatment
T1 construct: The coding region of a human PPARα cDNA was inserted downstream of the CMV promoter; expressed in transfected cells; host or cells: Cos-7 cells, transient transfection (pcDNA3.1(−)-PPARα, pRSV-RXRα, 3xPPRE-TK-luc reporter, pRL-TK)
T1 sequence (Q07869 1-468): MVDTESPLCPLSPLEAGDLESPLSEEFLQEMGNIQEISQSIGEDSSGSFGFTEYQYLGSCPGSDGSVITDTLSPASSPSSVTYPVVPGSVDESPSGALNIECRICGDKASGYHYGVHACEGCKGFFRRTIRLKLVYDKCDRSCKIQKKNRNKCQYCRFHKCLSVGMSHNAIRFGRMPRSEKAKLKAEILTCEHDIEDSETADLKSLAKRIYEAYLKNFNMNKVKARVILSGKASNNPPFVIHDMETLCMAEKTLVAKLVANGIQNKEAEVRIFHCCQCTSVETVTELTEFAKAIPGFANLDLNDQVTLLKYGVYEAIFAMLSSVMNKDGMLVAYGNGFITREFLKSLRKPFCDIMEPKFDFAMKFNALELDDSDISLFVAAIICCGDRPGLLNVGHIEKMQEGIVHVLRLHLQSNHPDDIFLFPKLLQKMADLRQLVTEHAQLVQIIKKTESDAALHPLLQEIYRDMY
T1 sequence (P19793 1-462 partner): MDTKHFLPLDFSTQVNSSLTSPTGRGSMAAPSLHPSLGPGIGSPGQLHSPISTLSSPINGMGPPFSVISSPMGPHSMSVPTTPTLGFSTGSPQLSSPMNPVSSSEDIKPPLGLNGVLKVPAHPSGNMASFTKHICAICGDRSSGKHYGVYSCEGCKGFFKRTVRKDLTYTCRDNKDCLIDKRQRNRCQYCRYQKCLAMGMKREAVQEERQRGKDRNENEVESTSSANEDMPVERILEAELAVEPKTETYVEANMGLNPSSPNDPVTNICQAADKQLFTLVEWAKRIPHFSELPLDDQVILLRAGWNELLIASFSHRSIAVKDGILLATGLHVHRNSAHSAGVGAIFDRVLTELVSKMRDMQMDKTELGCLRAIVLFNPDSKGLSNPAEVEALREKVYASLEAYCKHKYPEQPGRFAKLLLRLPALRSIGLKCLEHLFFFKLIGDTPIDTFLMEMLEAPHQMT
From the text: One convenient reporter assay for determining whether a fatty acid material is PPARα activating is based upon the firefly luciferase gene.
Fatty acids were screened to identify PPAR activating fatty acids using a reporter assay.
This assay relied on ligands binding to and activating the PPARα protein, which, in turn, activated genes under the control of PPAR response elements (PPRE). In the assay, the firefly luciferase gene was cloned behind a promoter containing 3 copies of the fatty acid binding protein PPRE.
The assay was performed by transient transfection of Cos-7 cells with a mixture of four DNA plasmids. These were:
1) PPAR reporter gene construct (Modified pNF-KB-luc reporter vector (Firefly luciferase reporter vector commercially available form Clontech (NF-kB response element, TK minimal promoter, luc^+, f1 origin, pUC origin, amp^r)). A tandem repeat of 3 PPAR response elements (PPREs) corresponding to the PPRE found in the fatty acid binding protein promoter was inserted upstream of the minimal TK promoter to replace the NF-κB response element);
2) 2) Over-expressing PPARα construct (Modified pcDNA3.1(−) vector (A mammalian expression vector commercially available from Invitrogen (CMV promoter, f1 origin, SV40 origin, ColE1 origin, neo^r, amp^r)). The coding region of a human PPARα cDNA was inserted downstream of the CMV promoter of pcDNA3.1 (−)). […] The coding region of a human RXRα cDNA has been inserted downstream of the RSV promoter. (Gift of V. K. K. Chatterjee, Addenbrooke's Hospital, Cambridge)) 4) Control luciferase construct (pRL-TK Renilla luciferase reporter vector commercially available from Promega (HSV-TK promoter, T7 promoter, Rluc^+, ori, amp^r)). For the transfection, DNA was made up as a mix of PPAR reporter gene: PPARα: RXRα: control in the ratio 40:4:3:3.
Cos-7 cells were grown in Dulbecco's modified Eagle's Medium, also herein referred to as DMEM with 10% foetal calf serum, herein also referred to as FCS at 37° C., 5% CO2 to 80% confluency. Cells were then plated out in 24 well plates at 50,000 cells per well and incubated overnight in DMEM with 10% FCS at 37° C., 5% CO2. Cells were then transfected using the LipofectAMINE reagent (GibcoBRL). For each well 0.4 μg of DNA mix (in 25 μl of DMEM) was incubated with 1 μl LipofectAMINE (in 25 μl of DMEM) for 45 minutes. The mixture was then made up to 250 μl per well and added to the cells, which had been washed with 1 ml of DMEM. Cells were then incubated for 5 hours at 37° C., 5% CO2 and 250 μl DMEM with 10% SBCS (charcoal stripped bovine calf serum) added. Cells were incubated for 18 hours at 37° C., 5% CO2 before being treated with the appropriate compound/extract. Test compounds were made up as 1000× stocks (in DMSO or ethanol as appropriate) and diluted into DMEM with 10% SBCS (500 μl per well) immediately before being added to cells. Each treatment was performed in triplicate. The transfection mix was removed from the cells and replaced with the treatment mix, and incubated for 24 hours at 37° C., 5% CO2. Cells were washed with 1 ml of PBS (without calcium or magnesium) and then lysed with 100 μl per well of 1× Passive Lysis Buffer (as supplied with Promega Dual Luciferase assay kit). Lysis was allowed to continue for 15 minutes and then the lysate was assayed for Firefly and Renilla luciferase activity using the Promega Dual Luciferase assay kit. For the assay, 20 μl of lysate was taken and assayed as described in the kit instructions using a MLX microtiter™ plate luminometer (Dynex).
Firefly luciferase activity (PPAR driven) was normalised against the Renilla luciferase value for that well and the mean calculated for the three wells treated with the same agent. Activity was then expressed as fold activation over the vehicle (DMSO or ethanol) control values for that particular plate.

[2] = test system: Transglutaminase (TGase); assay: Keratinocyte transglutaminase (TGase) assay; type: cell-based, human; conditions: for TGase/ng DNA: 4 days, 30 μM Ca2+, control (0 μM) 16.82
Method: (§1) Human foreskin keratinocytes (passage 3) were seeded at 4000 cells/well in 96 well plates in Keratinocyte Growth Medium (abbreviated to KGM) containing 0.03 mM calcium and grown for 3 days at 37° C. The cells were then treated with PPAR ligands in KGM containing 0.03 mM calcium for 4 days prior to harvest. Stock solutions of PPAR ligands were dissolved in dimethylsulphoxide (DMSO) and diluted in KGM before adding to the cells. […] The harvested cells were washed 3× in phosphate buffered saline (PBS) and extracted in 1% Triton X100, 50 mM (tris[hydroxymethyl]aminomethane) (Tris) pH 8.0 plus protease inhibitors pepstatin and leupeptin (100 μl/well). The extract was assayed for DNA content using the Pico Green DNA assay (Molecular Probes, Inc.).
The remaining cell debris attached to the 96 well plate was incubated with 70 μl/well of TGase assay buffer (50 mM Tris™ pH 8.0, 5 mM DTT, 50 mM CaCl2, 150 mM NaCl, 15 μM Texas Red Cadaverine) and incubated for 16 hours at 37° C. The plates were then washed with distilled water (×2) and the fluorescence due to cross-linked Texas Red cadaverine was determined using excitation at 590 nm and emission of 645 nm.
Cultured keratinocytes were treated with cis-9-trans-11-conjugated linoleic acid (CT-CLA) for 4 days. The cells were extracted with Tris-1% Triton X100™ and the non-extractable TGase activity associated with the cells was determined using Texas Red Cadaverine (in accordance with the methods described above).

[3] = test system: Human foreskin keratinocytes; assay: Keratinocyte proliferation analysis (DNA content per well, Pico Green); type: cell-based; conditions: for keratinocyte DNA synthesis activity, statement: 1 way ANOVA, p<0.05; for DNA: 4 days
Method: as §1
Cultured keratinocytes were treated with cis-9-trans-11 conjugated linoleic acid (CT-CLA) for 4 days. The cells were extracted with Tris-1% Triton X100 and the DNA content per well was determine by the Pico Green assay in accordance with the above described procedure.

[4] = test system: interleukin-6 (IL-6); assay: Skin organotypic culture analysis: AP-induced IL-6 release into the medium; type: cell-based; conditions: 500 μM in medium, AP formulation topical, 24 h; Dunnet's test p<0.05
Method: (§2) The cultures were then incubated at 37° C., 5% CO2, and 95% relative humidity (standard cell culture conditions) for 24 h. The culture medium was assayed for the pro-inflammatory cytokine interleukin-6 (IL-6) and after washing to remove the AP formulation, the viability of the culture was determined using the Thiazoyl blue (MTT) assay (Mosmann, T. J. Immunol. Methods 65, p55 (1983). IL-6 was determined using an Immunoassay (Quantikine, R&D systems).
(§3) In this Example, skin organotypic cultures (Epiderm™, MatTek, USA) were treated topically with the above-identified AP formulation and the trans-10-cis-12 conjugated linoleic acid (TC CLA) was introduced into the medium. The cultures were then incubated at 37° C., 5% CO2, and 95% relative humidity (standard cell culture conditions) for 24 h. The culture medium was assayed for the pro-inflammatory cytokine interleukin-6 (IL-6) and after washing to remove the AP formulation, the viability of the culture was determined by the method described in Example 2.
as §2, with “hours.” for “h.”, “MTT assay.” for “Thiazoyl blue (MTT) assay (Mosmann, T. J. Immunol. Methods 65, p55 (1983).”, “ELISA assay (R&D” for “Immunoassay (Quantikine, R&D”

[5] = test system: skin organotypic cultures (Epiderm); assay: Viability of skin organotypic cultures (MTT assay); type: cell-based
Method: as §2, §3
as §2, with “hours.” for “h.”, “MTT assay.” for “Thiazoyl blue (MTT) assay (Mosmann, T. J. Immunol. Methods 65, p55 (1983).”, “ELISA assay (R&D” for “Immunoassay (Quantikine, R&D”

[6] = test system: volunteers (volar forearm); assay: Human patch test irritation analysis; type: in vivo; conditions: 0.25% incorporated into the formulation; Wilcoxon signed rank test, 5% level
Method: Patch tests were performed on mixed panel of 50 volunteers with age ranges between 18 and 55, using a double-blinded protocol with randomised patch sites. Samples (20 mg) were applied to a filter paper that was placed within a Finn™ chamber (0.8 cm internal diameter). The chambers were then attached to the volar forearm using Scanpore™ tape (Norgesplater, Nor.) and left for 47 h.

[7] = test system: Human foreskin keratinocytes; assay: Keratinocyte cornified envelope assay; type: cell-based; conditions: for Cornified envelopes assay: 4 days, control (0 μM) 17996
Method: as §1
After Tris-triton extraction for TGase assay, the cells were extracted with 100 μl/well of 2% SDS, 20 mM DTT for 16 hours at 60° C. Once extracted the SDS suspension from each well was individually filtered through polyviylidenefluoride (PVDF) membrane (Immobilon-P™ Transfer Membrane, Millipore) which had been pre-blocked in Tris Buffered Saline (TBS) containing 0.5% (v/v) Tween 20, 0.5% using a Dot Blot TM Apparatus (Bio-Rad). Each sample was washed several times with TBS/Tween buffer before the membrane was removed from the apparatus, rinsed in distilled water and silver stained using silver stain kit (Bio-Rad). The stained dot blot membrane was scanned and analysed using Phoretix Array™ software.
Cultured keratinocytes were treated with pinoleic acid for 4 days. The cells were extracted with 2% SDS, 20 mM DTT and the cornified envelopes were quantified, after filtration using a PDVF membrane, by silver staining, as described above.

Molecule: CCCCCC/C=C/C=C\CCCCCCCC(=O)O [CLA (c9, t11), cis-9-trans-11 conjugated linoleic acid]
- Result at (lowest administration level at which super or MS activity was achieved) [1]: 25 μm
- Result (superior activity class achieved) [1]: super (superior activity [super] (50% higher—at least 2.25 times PPARα activation))
- Pass at (lowest tested administration level at which the test material passed) [1]: 10 μm
- TGase/ng DNA ([2]; 0.1 μM): 18.30
- TGase/ng DNA ([2]; 1 μM): 18.46
- TGase/ng DNA ([2]; 10 μM): 28.07
- keratinocyte TGase activity, statement ([2]; 1 way ANOVA, p<0.05): significantly increase
- keratinocyte DNA synthesis activity, statement ([3]; Example 10: 10 μM): significantly reduce
- DNA ([3]; Table 11: 0.1 μM, control (0 μM) 92.17): 81.83 ng/well
- DNA ([3]; Table 11: 1 μM, control (0 μM) 92.17): 81.33 ng/well
- DNA ([3]; Table 11: 10 μM, control (0 μM) 92.17): 59.50 ng/well

Molecule: CCCCCCCCCCC/C=C\CCCCC(=O)O [Petroselinic acid, petroselinic acid]
- Result at (lowest administration level at which super or MS activity was achieved) [1]: 100 μm
- Result (superior activity class achieved) [1]: MS (more superior activity [MS] (100% higher—at least 3 times PPARα activation))
- Pass at (lowest tested administration level at which the test material passed) [1]: 10 μm
- AP-induced IL-6 release [4]: significantly decrease
- Culture viability ([5]; Example 2: AP formulation alone vs AP formulation and petroselinic acid): not significantly different
- Culture viability ([5]; Example 4: AP treatment alone vs AP and acid treatment): not significantly different
- mitigation of irritation induced by the prototype pump spray [6]: significantly mitigated

Molecule: hexadecatrienoic acid
- Result at (lowest administration level at which super or MS activity was achieved) [1]: 10 μm
- Result (superior activity class achieved) [1]: super (superior activity [super] (50% higher—at least 2.25 times PPARα activation))
- Pass at (lowest tested administration level at which the test material passed) [1]: 10 μm
- cornified envelope formation, statement ([7]; Example 9: 1-10 μM, 1 way ANOVA, p<0.05): significantly increase
- Cornified envelopes assay ([7]; Table 10: 0.1 μM): 17617 arb. Units
- Cornified envelopes assay ([7]; Table 10: 1 μM): 36017 arb. Units
- Cornified envelopes assay ([7]; Table 10: 10 μM): 40997 arb. Units
- keratinocyte DNA synthesis activity, statement ([3]; Example 14: 0.1-10 μM): significantly reduce
- DNA ([3]; Table 15: 0.1 μM, control (0 μM) 1.66): 0.98 ng/well
- DNA ([3]; Table 15: 1 μM, control (0 μM) 1.66): 1.27 ng/well
- DNA ([3]; Table 15: 10 μM, control (0 μM) 1.66): 1.13 ng/well
